Source: patent US6538112B2, “Hybridomas and monoclonal antibodies for an anticoagulant test” (Merck & Co., Inc., priority 1997, dated 2003)
“Also recorded” adds a separate entry of the source. Where a name gives a salt, the structure may show the parent alone. Read-outs that look alike come from different tables or passages of the source. Bridge positions count the residues as written; N and C are the ends. Ends that are not written are not given here. Peptide text beside a SMILES is read from it. * marks the point of attachment. Benzoyl(4-I) = O=C(c1ccc(I)cc1)*

How the values were obtained:
[1] = test system: gel filtered platelets; experiment: Platelet aggregation (lumiaggregometry); format: cell-based
Procedure: Aggregation by platelets stir red (1000 rpm) at 37° C. was assayed using the Chrono-Log Lumiaggregometer. Antibody mAb3-758, mAb10-758 or mAb15-758 were added to 250 μL of 2×10^8 GFP/mL, in platelet buffer containing 2 mM CaCl, in the absence or presence of 20 μM ADP followed by the addition of 200 μg/mL fibrinogen. In some experiments PGE1, apyrase and PGI2 were included as activation inhibitors. Changes in light transmittance were recorded and transferred to Microsoft Excel for data plotting. For the determination of EC50 and IC50 of mAb3-758 and mAb10-758, respectively, control aggregations Pusing ADP alone were performed with each set of concentrations tested.

[2] = biological target: T1, GPIIb/IIIa activation state on gel filtered platelets (Homo sapiens, UniProt P05106+P08514); experiment: PAC-1 binding to gel filtered platelets; format: cell-based; details: PGE1, PGI2 and apyrase prior to antibody or agonist
T1 construct: Gel filtered platelets (GFP) were prepared from blood anticoagulated with 13 mM trisodium citrate; endogenous in cells; host or cells: gel filtered platelets from citrated blood
T1 sequence (P08514 32-887 limits assumed): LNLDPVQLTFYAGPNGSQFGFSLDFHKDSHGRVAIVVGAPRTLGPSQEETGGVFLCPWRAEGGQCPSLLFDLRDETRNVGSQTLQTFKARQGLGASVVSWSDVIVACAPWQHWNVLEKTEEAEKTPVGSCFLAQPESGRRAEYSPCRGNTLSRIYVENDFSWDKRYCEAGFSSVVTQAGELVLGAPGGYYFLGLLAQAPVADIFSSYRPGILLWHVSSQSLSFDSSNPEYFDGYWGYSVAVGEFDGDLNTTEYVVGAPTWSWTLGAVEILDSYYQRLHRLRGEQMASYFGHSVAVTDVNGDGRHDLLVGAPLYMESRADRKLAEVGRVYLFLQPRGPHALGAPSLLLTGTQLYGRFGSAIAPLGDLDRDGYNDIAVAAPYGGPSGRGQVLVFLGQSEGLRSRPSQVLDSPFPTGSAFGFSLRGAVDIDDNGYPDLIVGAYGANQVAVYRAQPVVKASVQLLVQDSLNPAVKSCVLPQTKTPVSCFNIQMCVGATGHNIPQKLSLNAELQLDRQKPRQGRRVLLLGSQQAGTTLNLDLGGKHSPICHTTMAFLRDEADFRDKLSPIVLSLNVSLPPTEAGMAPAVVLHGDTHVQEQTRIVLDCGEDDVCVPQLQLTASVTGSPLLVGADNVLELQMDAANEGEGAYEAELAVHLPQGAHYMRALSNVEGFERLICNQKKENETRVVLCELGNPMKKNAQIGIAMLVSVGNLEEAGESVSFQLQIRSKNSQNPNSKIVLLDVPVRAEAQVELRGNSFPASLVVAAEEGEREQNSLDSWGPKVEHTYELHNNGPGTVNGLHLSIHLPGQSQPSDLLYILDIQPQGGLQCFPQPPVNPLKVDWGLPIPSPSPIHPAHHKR
T1 sequence (P08514 891-1039 partner limits assumed): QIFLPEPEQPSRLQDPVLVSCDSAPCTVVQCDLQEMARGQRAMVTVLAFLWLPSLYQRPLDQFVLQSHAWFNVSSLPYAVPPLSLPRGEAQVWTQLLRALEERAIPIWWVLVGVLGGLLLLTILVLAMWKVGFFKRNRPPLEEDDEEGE
T1 sequence (P05106 27-788): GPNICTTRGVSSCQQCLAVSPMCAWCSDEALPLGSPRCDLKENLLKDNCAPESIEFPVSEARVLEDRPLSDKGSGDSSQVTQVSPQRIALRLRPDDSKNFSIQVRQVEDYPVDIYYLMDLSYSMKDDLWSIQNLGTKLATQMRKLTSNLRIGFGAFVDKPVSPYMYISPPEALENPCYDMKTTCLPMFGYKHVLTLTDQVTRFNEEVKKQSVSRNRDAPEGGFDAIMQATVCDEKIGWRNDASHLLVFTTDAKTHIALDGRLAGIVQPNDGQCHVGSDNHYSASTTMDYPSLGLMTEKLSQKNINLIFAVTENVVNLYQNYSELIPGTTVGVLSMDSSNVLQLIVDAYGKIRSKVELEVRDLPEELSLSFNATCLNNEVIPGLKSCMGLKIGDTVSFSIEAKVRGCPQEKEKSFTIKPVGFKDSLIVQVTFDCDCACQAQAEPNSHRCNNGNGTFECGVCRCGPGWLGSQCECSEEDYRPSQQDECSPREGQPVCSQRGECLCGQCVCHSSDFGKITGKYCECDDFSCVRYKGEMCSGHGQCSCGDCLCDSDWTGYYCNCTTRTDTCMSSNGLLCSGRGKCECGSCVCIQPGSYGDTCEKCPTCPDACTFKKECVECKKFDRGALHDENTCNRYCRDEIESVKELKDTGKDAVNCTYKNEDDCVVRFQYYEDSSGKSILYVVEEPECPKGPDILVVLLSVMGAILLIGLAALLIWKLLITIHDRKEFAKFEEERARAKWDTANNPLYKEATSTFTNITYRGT
Procedure: PAC-1 (Shattil et al. (1985) J. Biol. Chem. 260, 11107-11114) binding studies were done using 20 μg/mL FITC conjugated PAC-1 (University of Pennsylvania Cell Center (Philadelphia, Pa.)) diluted in PBS. 25 μL of resting 1×10^8 GFP/mL, in flow cytometry buffer containing 1 mM CaCl, was combined with 100 nM of antibody and FITC conjugated PAC-1 to a final volume of 100 μL. The sample was incubated for 1 hour at room temperature. Following incubation the cells were diluted to 300 μL in flow cytometry buffer immediately before flow cytometry analysis. Contol PAC-1 binding to activated platelets was tested by first activating the receptors with either 1 nM thrombin or 20 μM ADP. Some samples were pretreated with activation inhibitors 100 μM PGE1, 20 μg/ml apyrase (Sigma Chemical Company (St. Louis, Mo.)) and 10 μM PGI2 (BioMol (Plymouth Meeting, Pa.)) prior to antibody addition or platelet activation with ADP or thrombin.

[3] = biological target: T2, purified human platelet αIIbβ3 (Homo sapiens, UniProt P05106+P08514); experiment: Disassociation constants of GP IIb/IIIa antagonists on purified human αIIbβ3; format: binding
T2 construct: detergent solubilized platelet lysates were passed over a Concanavalin A-Sepharose 4B column; from tissue; host or cells: human platelets (given as outdated human plasma; platelet lysates)
T2 sequence (P08514 32-887 limits assumed): as the sequence (P08514 32-887 limits assumed) above
T2 sequence (P08514 891-1039 partner limits assumed): as the sequence (P08514 891-1039 partner limits assumed) above
T2 sequence (P05106 27-788): as the sequence (P05106 27-788) above
Procedure: GPIIb/IIIa was purified from outdated human plasma using a slight modification of the procedure described by Kouns et al. (Kouns et al. (1992) J. Biol. Chem. 267, 18844-18851). Briefly, detergent solubilized platelet lysates were passed over a Concanavalin A-Sepharose 4B column (Sigma Chemicals, St. Louis, Mo.), followed by elution with methyl-α-D mannopyranozide (Sigma Chemical, St. Louis, Mo.). […] All fractions were analyzed for purity by SDS-PAGE electrophoresis.

[4] = biological target: T3, GPIIb/IIIa on gel filtered platelets (Homo sapiens, UniProt P05106+P08514); experiment: Flow cytometry binding assay on platelets: effect of receptor occupancy or ADP activation on antibody binding; details: GFP pretreated with 1 μM ligand, 100 nM antibody
T3 construct: Gel filtered platelets (GFP) were prepared from blood anticoagulated with 13 mM trisodium citrate; endogenous in cells; host or cells: gel filtered platelets from citrated blood
T3 sequence (P08514 32-887 limits assumed): as the sequence (P08514 32-887 limits assumed) above
T3 sequence (P08514 891-1039 partner limits assumed): as the sequence (P08514 891-1039 partner limits assumed) above
T3 sequence (P05106 27-788): as the sequence (P05106 27-788) above
Procedure: The platelet bound antibodies were separated from free antibodies by centrifugation in the presence of 100 μM PGE1 followed by resuspension in flow cytometry buffer containing 100 nM of FITC conjugated goat anti-mouse antibody, incubated for 1 hour at room temperature and analyzed using flow cytometry. The light scatter and fluorescence intensity of 20000 cells was collected using logarithmic gain.

[5] = activated form of purified human αIIbβ3, read-out: Activated Form KD-A
[6] = unactivated form of purified human αIIbβ3, read-out: Unactivated Form KD-B
[7] = Activated Form KD-A, activated form of purified human αIIbβ3
[8] = Unactivated Form KD-B, unactivated form of purified human αIIbβ3

With `Nc1ncnc2c1ncn2[C@@H]1O[C@H](COP(=O)(O)OP(=O)(O)O)[C@@H](O)[C@H]1O` [ADP] the “platelet aggregation response stimulated by the substance alone” value ([1]; 100 nM mAb10-758, 1 μM mAb15-758, 20 μM ADP, control platelets) was 69.6%, the “aggregation response following incubation with fibrinogen receptor antagonist” value ([1]; 10 μM of antagonist) was 2.5% and the EC50 ([1]; GFP with fibrinogen, read-out: EC50 ADP stimulated platelet aggregation) was 1700 nM. For the same compound, the “aggregation response of platelets pretreated with activation inhibitors” value ([1]; mixture of PGE1, PGI2 and apyrase, 100 nM mAb10-758, 1 μM mAb15-758) was 3.3%, the “aggregation response in control platelets of the antagonist experiment” value ([1]; no antagonist) was 69.6% and the “PAC-1 binding after pretreatment with activation inhibitors” value [2] was “completely blocked”.

With `N=C(N)c1ccc(C(=O)NC(Cc2ccc(O)cc2)C(=O)N2CCC(OCC(=O)O)CC2)cc1` (stereo not shown) [RO-44-9883, {1-[2-(4-carbamimidoyl-benzoylamino)3-(4-hydroxy-phenyl)propionyl]-piperidin-4-yloxy}-acetic acid] the Kd [3, 5] was 0.96 nM, the Kd [3, 6] was 6.3 nM and the “induction of the neo-epitope recognized by anti-LIBS mAb10-758 and mAb15-758” value [4] was “induced; also recorded: induce the neo-epitope”.

Compound `O=C(O)COc1ccc2c(c1)CN(C(=O)c1ccc(N3CCNCC3)cc1)CC2` [compound A, 4-(N-piperazine)benzoyl-(N-1,2,3,4-tetrahydroisoquinoline-7-yl)oxy-acetic acid] has a Kd [3, 5] of over 100000 nM and a Kd [3, 6] of over 100000 nM.

`N=C(N)NCCC[C@@H]1NC(=O)[C@@H]2CCCN2C(=O)[C@H](CC(N)=O)NC(=O)[C@@H](NC(=O)c2ccc(I)cc2)CSSC[C@@H](C(=O)O)NC(=O)[C@H](CC(=O)O)NC(=O)CNC1=O` [compound B, cyclo-4-I-benzoyl-(Cys-Asn-Pro-Arg-Gly-Asp-Cys)-OH HOAc salt] ({Benzoyl(4-I)}-CNPRGDC-OH; disulfide 1-7 (inferred)) was tested, and the Kd [3, 7] was 1.5 nM and the Kd [3, 8] was 60 nM.

`C[C@H](CC(=O)O)NC(=O)CN1CCC[C@@H](CCC2CCNCC2)C1=O` [compound C, N-[3(R)-[2-(Piperidin-4-yl)ethyl]-2-piperidon-1-yl] acetyl-3(R)-methyl-β-alanine] showed a Kd [3, 5] of 4.5 nM and a Kd [3, 6] of 610 nM.

`O=C(NC[C@H](NS(=O)(=O)c1cccnc1)C(=O)O)c1cc2cc(CCC3CCNCC3)sc2s1` [compound D, 2-(S)-(3-pyridylsulfonyl)amino-3-N-[5-[2-(4-piperidinyl)ethyl]-thienothiophene-2-carboxamide]propionic acid] was tested, and the Kd [3, 5] was 0.03 nM and the Kd [3, 6] was 2.4 nM.

“ECESGPCCRNCKFLKEGTICKRARGDDMDDYCNGKTCDCPRNPHKGPAT (disulfide 2-11, 7-32, 8-37, 20-39 (inferred)) [echistatin]” was tested, and the Kd [3, 7] was 4.6 nM and the Kd [3, 8] was 4.9 nM.
